Measured values as given in article PMC3813303 (Biochemistry, 2013).

Target: T1, Acel0264 (Acidothermus cellulolyticus, UniProt A0LRH8)
T1 sequence (A0LRH8 1-356): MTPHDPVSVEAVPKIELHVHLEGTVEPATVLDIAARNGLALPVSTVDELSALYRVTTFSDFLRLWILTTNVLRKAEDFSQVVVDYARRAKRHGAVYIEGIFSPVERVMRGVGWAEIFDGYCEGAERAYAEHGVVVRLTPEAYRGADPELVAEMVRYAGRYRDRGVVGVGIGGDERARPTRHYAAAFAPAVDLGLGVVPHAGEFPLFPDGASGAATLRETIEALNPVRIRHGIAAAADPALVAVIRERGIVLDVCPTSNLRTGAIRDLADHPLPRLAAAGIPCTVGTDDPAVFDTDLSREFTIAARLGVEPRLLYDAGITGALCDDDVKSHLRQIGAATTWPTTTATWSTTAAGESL
Test: absorbance decrease at […] nm
Type: biochemical
Details: read-out: Acel0264 / Km; pH 7.5, 30 °C

Structure (SMILES): CCNC(=O)[C@H]1O[C@@H](n2cnc3c(N)ncnc32)[C@H](O)[C@@H]1O [NECA, 1-(6-Amino-9H-purin-9-yl)-1-deoxy-N-ethyl-β-D-ribofuranuronamide]
- Km: 61 µM
